# Test results reported in ChEMBL document CHEMBL4311986, “Synthesis and biological evaluation of new multi-target 3-(1H-indol-3-yl)pyrrolidine-2,5-dione derivatives with potential antidepressant effect” (Eur J Med Chem, 2019).
# pKi: −log10 of the molar value.
# Columns and labels:
# [1] = biological target: T1, 5-hydroxytryptamine receptor 1A (Homo sapiens, UniProt P08908); assay: biochemical
# T1 sequence (P08908 whole entry): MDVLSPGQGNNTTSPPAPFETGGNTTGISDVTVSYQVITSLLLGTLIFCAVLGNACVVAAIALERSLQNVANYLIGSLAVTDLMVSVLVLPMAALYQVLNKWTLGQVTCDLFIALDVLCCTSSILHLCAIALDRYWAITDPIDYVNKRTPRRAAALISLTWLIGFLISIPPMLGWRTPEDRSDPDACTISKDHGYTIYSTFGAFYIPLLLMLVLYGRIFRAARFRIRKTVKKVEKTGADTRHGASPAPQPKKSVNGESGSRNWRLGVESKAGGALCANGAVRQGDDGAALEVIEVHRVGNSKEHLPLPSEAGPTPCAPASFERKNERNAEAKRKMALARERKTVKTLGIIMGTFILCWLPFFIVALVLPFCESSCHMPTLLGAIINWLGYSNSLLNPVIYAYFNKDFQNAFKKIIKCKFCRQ
# [2] = biological target: Sodium-dependent serotonin transporter (Homo sapiens, UniProt P31645); assay: Displacement of [3H]-imipramine from human serotonin transporter expressed in HEK293 cells membranes incubated for 30 mins by microbeta scintillation counting analysis; assay type: cell membranes
# [3] = Half life in human liver microsomes at 1 uM measured for 5 to 30 mins in presence of NADPH by LC-MS/MS analysis; assay type: ADME, Microsome
# Mus musculus [4] = assay: Induction of hypothermia in CD-1 mouse assessed as change in body temperature at 5 mg/kg, ip measured after 120 mins by thermometric method; assay type: functional, organism-based
# Mus musculus [5] = assay: Induction of hypothermia in CD-1 mouse assessed as change in body temperature at 10 mg/kg, ip measured after 60 mins by thermometric method; assay type: functional, organism-based
# Mus musculus [6] = assay: Induction of hypothermia in CD-1 mouse assessed as change in body temperature at 10 mg/kg, ip measured after 90 mins by thermometric method; assay type: functional, organism-based
# Mus musculus [7] = assay: Induction of hypothermia in CD-1 mouse assessed as change in body temperature at 10 mg/kg, ip measured after 30 mins by thermometric method; assay type: functional, organism-based
# Mus musculus [8] = assay: Induction of hypothermia in CD-1 mouse assessed as change in body temperature at 5 mg/kg, ip measured after 60 mins by thermometric method; assay type: functional, organism-based
# Mus musculus [9] = assay: Induction of hypothermia in CD-1 mouse assessed as change in body temperature at 20 mg/kg, ip measured after 120 mins by thermometric method; assay type: functional, organism-based
# Mus musculus [10] = assay: Induction of hypothermia in CD-1 mouse assessed as change in body temperature at 10 mg/kg, ip pretreated for 60 mins with 5-HT1AR antagonist WAY100635 followed by compound treatment and measured after 30 mins by thermometric method; assay type: functional, organism-based
# Mus musculus [11] = assay: Induction of hypothermia in CD-1 mouse assessed as change in body temperature at 5 mg/kg, ip measured after 30 mins by thermometric method; assay type: functional, organism-based
# Mus musculus [12] = assay: Induction of hypothermia in CD-1 mouse assessed as change in body temperature at 20 mg/kg, ip measured after 90 mins by thermometric method; assay type: functional, organism-based
# Mus musculus [13] = assay: Induction of hypothermia in CD-1 mouse assessed as change in body temperature at 20 mg/kg, ip measured after 30 mins by thermometric method; assay type: functional, organism-based
# D(2) dopamine receptor = D(2) dopamine receptor (Homo sapiens, UniProt P14416); assay: Displacement of [3H]-raclopride from human D2L receptor expressed in HEK293 cells incubated for 1 hr by liquid scintillation counting method; assay type: cell-based
# Mus musculus [14] = assay: Induction of hypothermia in CD-1 mouse assessed as change in body temperature at 10 mg/kg, ip measured after 120 mins by thermometric method; assay type: functional, organism-based
# Mus musculus [15] = assay: Induction of hypothermia in CD-1 mouse assessed as change in body temperature at 5 mg/kg, ip measured after 90 mins by thermometric method; assay type: functional, organism-based
# Mus musculus [16] = assay: Induction of hypothermia in CD-1 mouse assessed as change in body temperature at 10 mg/kg, ip pretreated for 30 mins with 5-HT1AR antagonist WAY100635 followed by compound treatment and measured after 30 mins by thermometric method; assay type: functional, organism-based
# [17] = biological target: 5-hydroxytryptamine receptor 6 (Homo sapiens, UniProt P50406); assay: Displacement of [3H]-LSD from human 5-HT6 receptor expressed in HEK293 cells incubated for 1 hr by liquid scintillation counting method; assay type: cell-based
# [18] = biological target: 5-hydroxytryptamine receptor 7 (Homo sapiens, UniProt P34969); assay: Displacement of [3H]-5-CT from human 5HT7 receptor expressed in HEK293 cells incubated for 1 hr by liquid scintillation counting method; assay type: cell-based
# Mus musculus [19] = assay: Induction of hypothermia in CD-1 mouse assessed as change in body temperature at 20 mg/kg, ip measured after 60 mins by thermometric method; assay type: functional, organism-based
# Mus musculus [20] = assay: Induction of hypothermia in CD-1 mouse assessed as change in body temperature at 15 mg/kg, ip pretreated for 60 mins with 5-HT1AR antagonist WAY100635 followed by compound treatment and measured after 30 mins by thermometric method (reference value: -0.1 to 0.4 deg C); assay type: functional, organism-based
# Mus musculus [21] = assay: Induction of hypothermia in CD-1 mouse assessed as change in body temperature at 15 mg/kg, ip measured after 30 mins by thermometric method (reference value: -0.2 to 0.4 deg C); assay type: functional, organism-based
# Mus musculus [22] = assay: Induction of hypothermia in CD-1 mouse assessed as change in body temperature at 15 mg/kg, ip measured after 90 mins by thermometric method (reference value: -0.3 to 0.3 deg C); assay type: functional, organism-based
# Mus musculus [23] = assay: Induction of hypothermia in CD-1 mouse assessed as change in body temperature at 15 mg/kg, ip pretreated for 30 mins with 5-HT1AR antagonist WAY100635 followed by compound treatment and measured after 30 mins by thermometric method (reference value: -0.1 to 0.1 deg C); assay type: functional, organism-based
# Mus musculus [24] = assay: Induction of hypothermia in CD-1 mouse assessed as change in body temperature at 15 mg/kg, ip measured after 60 mins by thermometric method (reference value: -0.2 to 0.5 deg C); assay type: functional, organism-based
# Mus musculus [25] = assay: Induction of hypothermia in CD-1 mouse assessed as change in body temperature at 15 mg/kg, ip measured after 120 mins by thermometric method (reference value: -0.1 to 0.3 deg C); assay type: functional, organism-based
# Chain of 5-hydroxytryptamine receptor 6 (P50406 whole entry): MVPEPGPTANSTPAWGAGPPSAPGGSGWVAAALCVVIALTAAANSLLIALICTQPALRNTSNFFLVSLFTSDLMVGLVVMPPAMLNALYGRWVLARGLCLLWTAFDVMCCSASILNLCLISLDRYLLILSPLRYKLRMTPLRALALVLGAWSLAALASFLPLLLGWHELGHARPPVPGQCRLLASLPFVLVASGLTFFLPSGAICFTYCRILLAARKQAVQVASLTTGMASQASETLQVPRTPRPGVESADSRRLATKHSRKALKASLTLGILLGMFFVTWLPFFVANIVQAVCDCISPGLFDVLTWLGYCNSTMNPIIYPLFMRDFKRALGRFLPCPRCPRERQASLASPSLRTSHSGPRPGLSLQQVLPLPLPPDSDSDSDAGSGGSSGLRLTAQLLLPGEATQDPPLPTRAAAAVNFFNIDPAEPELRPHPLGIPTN
# Chain of 5-hydroxytryptamine receptor 7 (P34969 whole entry): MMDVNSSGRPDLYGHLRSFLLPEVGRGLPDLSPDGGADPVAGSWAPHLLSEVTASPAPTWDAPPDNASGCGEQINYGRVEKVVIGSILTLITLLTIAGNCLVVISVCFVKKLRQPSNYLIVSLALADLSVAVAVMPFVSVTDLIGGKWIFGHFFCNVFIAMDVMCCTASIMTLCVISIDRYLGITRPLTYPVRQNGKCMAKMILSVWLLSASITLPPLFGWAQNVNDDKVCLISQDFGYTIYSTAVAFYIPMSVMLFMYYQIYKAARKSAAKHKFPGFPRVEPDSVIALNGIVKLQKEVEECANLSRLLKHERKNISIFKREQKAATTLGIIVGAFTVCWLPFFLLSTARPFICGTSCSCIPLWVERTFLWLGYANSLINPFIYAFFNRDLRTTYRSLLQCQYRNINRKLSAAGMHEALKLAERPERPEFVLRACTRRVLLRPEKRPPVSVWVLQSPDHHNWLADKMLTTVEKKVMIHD
# Chain of Sodium-dependent serotonin transporter (P31645 whole entry): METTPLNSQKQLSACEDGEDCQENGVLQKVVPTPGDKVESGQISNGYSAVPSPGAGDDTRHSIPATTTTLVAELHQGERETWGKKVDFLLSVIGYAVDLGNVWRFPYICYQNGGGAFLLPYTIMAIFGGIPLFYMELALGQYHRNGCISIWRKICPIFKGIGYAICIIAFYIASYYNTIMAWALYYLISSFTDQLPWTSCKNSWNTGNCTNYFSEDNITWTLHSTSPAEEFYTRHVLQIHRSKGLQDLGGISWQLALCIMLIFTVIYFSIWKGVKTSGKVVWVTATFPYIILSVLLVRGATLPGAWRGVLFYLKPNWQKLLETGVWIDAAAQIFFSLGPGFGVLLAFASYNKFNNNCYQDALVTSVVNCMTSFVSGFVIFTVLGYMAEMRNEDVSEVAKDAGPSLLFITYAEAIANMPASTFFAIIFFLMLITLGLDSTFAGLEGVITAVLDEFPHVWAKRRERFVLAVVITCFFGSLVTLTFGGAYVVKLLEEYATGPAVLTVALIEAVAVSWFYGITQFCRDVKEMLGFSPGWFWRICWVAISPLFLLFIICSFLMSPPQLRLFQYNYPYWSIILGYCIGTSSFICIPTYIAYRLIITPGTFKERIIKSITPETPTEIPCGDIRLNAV
# Chain of D(2) dopamine receptor (P14416 whole entry): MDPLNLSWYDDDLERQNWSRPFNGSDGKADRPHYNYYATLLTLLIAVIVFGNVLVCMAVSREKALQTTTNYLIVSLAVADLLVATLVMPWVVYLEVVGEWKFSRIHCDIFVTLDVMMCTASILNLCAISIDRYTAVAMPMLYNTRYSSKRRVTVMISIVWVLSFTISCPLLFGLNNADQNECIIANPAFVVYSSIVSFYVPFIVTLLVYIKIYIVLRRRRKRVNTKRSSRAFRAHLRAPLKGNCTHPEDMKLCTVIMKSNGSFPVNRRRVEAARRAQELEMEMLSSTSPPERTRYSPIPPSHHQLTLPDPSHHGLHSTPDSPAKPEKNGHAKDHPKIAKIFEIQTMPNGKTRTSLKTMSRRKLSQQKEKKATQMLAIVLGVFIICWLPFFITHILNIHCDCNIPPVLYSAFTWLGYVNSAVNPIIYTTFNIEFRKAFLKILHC
smiles,measurement,setting,value
O=C1CC(c2c[nH]c3ccccc23)C(=O)N1CCCCN1CCCC(c2c[nH]c3ccccc23)C1 (centres undefined),pKi,[1],6.91
O=C1CC(c2c[nH]c3ccc(F)cc23)C(=O)N1CCN1CCC(c2c[nH]c3ccc(F)cc23)CC1 (centres undefined),pKi,[2],6.50
same,pKi,[1],6.15
COc1ccc2[nH]cc(C3CCN(CCCN4C(=O)CC(c5c[nH]c6ccc(F)cc56)C4=O)CC3)c2c1 (centres undefined),pKi,[2],6.81
same,pKi,[1],6.80
COc1ccc2[nH]cc(C3CC(=O)N(CCN4CCC(c5c[nH]c6ccc(F)cc56)CC4)C3=O)c2c1 (centres undefined),pKi,[2],6.66
same,pKi,[1],6.65
COc1ccc2[nH]cc(C3CC(=O)N(CCCCN4CCC(c5c[nH]c6ccccc56)CC4)C3=O)c2c1 (centres undefined),half-life at 1 µM,[3],10.5 min
same,deltaT,Mus musculus [4],-0.1 °C
same,deltaT,Mus musculus [5],-0.4 °C
same,pKi,[2],6.15
same,deltaT,Mus musculus [6],-0.4 °C
same,deltaT,Mus musculus [7],-1.3 °C
same,deltaT,Mus musculus [8],0 °C
same,deltaT,Mus musculus [9],-0.9 °C
same,deltaT,Mus musculus [10],0.5 °C
same,deltaT,Mus musculus [11],-0.2 °C
same,deltaT,Mus musculus [12],-1.1 °C
same,deltaT,Mus musculus [13],-2.9 °C
same,pKi,D(2) dopamine receptor,7.80
same,deltaT,Mus musculus [14],-0.4 °C
same,deltaT,Mus musculus [15],0 °C
same,pKi,[1],8.20
same,deltaT,Mus musculus [16],0.4 °C
same,pKi,[17],7.09
same,pKi,[18],7.60
same,deltaT,Mus musculus [19],-1.5 °C
COc1ccc2[nH]cc(C3CC(=O)N(CCCN4CCC(c5c[nH]c6ccccc56)CC4)C3=O)c2c1 (centres undefined),pKi,[2],6.28
same,pKi,[1],6.69
COc1ccc2[nH]cc(C3CCN(CCCCN4C(=O)CC(c5c[nH]c6ccc(F)cc56)C4=O)CC3)c2c1 (centres undefined),half-life at 1 µM,[3],9.9 min
same,deltaT,Mus musculus [4],0.8 °C
same,deltaT,Mus musculus [5],0.2 °C
same,pKi,[2],6.70
same,deltaT,Mus musculus [6],0.2 °C
same,deltaT,Mus musculus [7],-1.1 °C
same,deltaT,Mus musculus [8],0.6 °C
same,deltaT,Mus musculus [9],-0.2 °C
same,deltaT,Mus musculus [10],0.8 °C
same,deltaT,Mus musculus [11],0.4 °C
same,deltaT,Mus musculus [12],-0.6 °C
same,deltaT,Mus musculus [13],-3.2 °C
same,pKi,D(2) dopamine receptor,7.70
same,deltaT,Mus musculus [14],0.3 °C
same,deltaT,Mus musculus [15],0.6 °C
same,pKi,[1],8.49
same,deltaT,Mus musculus [16],-0.4 °C
same,pKi,[17],7.15
same,pKi,[18],6.34
same,deltaT,Mus musculus [19],-1.4 °C
COc1ccc2[nH]cc(C3CCN(CCN4C(=O)CC(c5c[nH]c6ccc(OC)cc56)C4=O)CC3)c2c1 (centres undefined),pKi,[2],7.20
same,pKi,[1],6.62
O=C1CC(c2c[nH]c3ccc(F)cc23)C(=O)N1CCCCN1CCC(c2c[nH]c3ccccc23)CC1 (centres undefined),half-life at 1 µM,[3],10 min
same,deltaT,Mus musculus [20],0.3 °C
same,deltaT,Mus musculus [4],-0.3 °C
same,deltaT,Mus musculus [5],0.1 °C
same,deltaT,Mus musculus [21],-1.8 °C
same,pKi,[2],7.29
same,deltaT,Mus musculus [22],-0.4 °C
same,deltaT,Mus musculus [6],0 °C
same,deltaT,Mus musculus [7],-0.6 °C
same,deltaT,Mus musculus [23],0.1 °C
same,deltaT,Mus musculus [8],-0.2 °C
same,deltaT,Mus musculus [24],-0.7 °C
same,deltaT,Mus musculus [9],-0.6 °C
same,deltaT,Mus musculus [11],-0.4 °C
same,deltaT,Mus musculus [12],-0.2 °C
same,deltaT,Mus musculus [13],-2.3 °C
same,pKi,D(2) dopamine receptor,6.72
same,deltaT,Mus musculus [14],-0.2 °C
same,deltaT,Mus musculus [15],-0.2 °C
same,pKi,[1],7.89
same,pKi,[17],7.54
same,pKi,[18],7.30
same,deltaT,Mus musculus [19],-0.7 °C
same,deltaT,Mus musculus [25],-0.4 °C
CN(C)C(=O)N[C@H]1CC[C@H](CCN2CCN(c3cccc(Cl)c3Cl)CC2)CC1 [CARIPRAZINE],pKi,[18],6.95
COc1ccc2[nH]cc(C3CCCN(CCCCN4C(=O)CC(c5c[nH]c6ccc(OC)cc56)C4=O)C3)c2c1 (centres undefined),pKi,[1],7.28
COc1ccc2[nH]cc(C3CCN(CCCN4C(=O)CC(c5c[nH]c6ccc(OC)cc56)C4=O)CC3)c2c1 (centres undefined),pKi,[2],6.95
same,pKi,[1],7.16
